Data published in patent US9409884B2 (Rigel Pharmaceuticals, Inc., priority 2012, dated 2016).

Target: AMPK
Test: AMPK activation, enzyme-linked immunosorbent assay
Format: biochemical
Conditions: Table 8, compounds of Table 1
Method in brief: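 AMPK activation by test compounds was measured by enzyme-linked immunosorbent assay.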

| SMILES | EC50 [nM] |
| --- | --- |
| O=C(N[C@@H]1CCN(S(=O)(=O)c2cccnc2)C1)c1cc2cc(OC3CCN(c4ccc(C(F)(F)F)cc4)CC3)ccc2o1 [Compound 1-126, (R)-N-(1-(pyridin-3-ylsulfonyl)pyrrolidin-3-yl)-5-(1-(4-(trifluoromethyl)phenyl)piperidin-4-yloxy)benzofuran-2-carboxamide] | 1000 to 5000 |
| CC(C)(C)OC(=O)N1CC[C@H](NC(=O)c2cc3cc(OC4CCN(Cc5ccc(Cl)cc5)CC4)ccc3o2)C1 [Compound 1-127, (S)-tert-butyl 3-(5-(1-(4-chlorobenzyl)piperidin-4-yloxy)benzofuran-2-carboxamido) pyrrolidine-1-carboxylate] | 1000 to 5000 |
| O=C(N[C@H]1CCNC1)c1cc2cc(OC3CCN(Cc4ccc(Cl)cc4)CC3)ccc2o1 [Compound 1-128, (S)-5-(1-(4-chlorobenzyl)piperidin-4-yloxy)-N-(pyrrolidin-3-yl)benzofuran-2-carboxamide] | > 10000 |
| O=C(N[C@H]1CCN(Cc2ccncc2)C1)c1cc2cc(OC3CCN(Cc4ccc(Cl)cc4)CC3)ccc2o1 [Compound 1-129, (S)-5-(1-(4-chlorobenzyl)piperidin-4-yloxy)-N-(1-(pyridin-4-ylmethyl)pyrrolidin-3-yl)benzofuran-2-carboxamide] | 1000 to 5000 |
| O=C(N[C@H]1CCN(Cc2cccnc2)C1)c1cc2cc(OC3CCN(Cc4ccc(Cl)cc4)CC3)ccc2o1 [Compound 1-130, (S)-5-(1-(4-chlorobenzyl)piperidin-4-yloxy)-N-(1-(pyridin-3-ylmethyl)pyrrolidin-3-yl)benzofuran-2-carboxamide] | 1000 to 5000 |
| NC(=O)c1ccc(CN2CCC(Oc3ccc4oc(C(=O)NC5CCN(Cc6ccncc6)CC5)cc4c3)CC2)cc1 [Compound 1-131, 5-(1-(4-carbamoylbenzyl)piperidin-4-yloxy)-N-(1-(pyridin-4-ylmethyl)piperidin-4-yl)benzofuran-2-carboxamide] | 1000 to 5000 |
| O=C(NC1CCN(Cc2ccncc2)CC1)c1cc2cc(OC3CCN(c4ccc(OC(F)(F)F)cc4)CC3)ccc2s1 [Compound 1-137, N-(1-(pyridin-4-ylmethyl)piperidin-4-yl)-5-(1-(4-(trifluoromethoxy)phenyl)piperidin-4-yloxy)benzo [b]thiophene-2-carboxamide] | < 100 |
| O=C(NC1CCN(Cc2ccncc2)CC1)c1cc2cc(OC3CCN(c4ccc(C(F)(F)F)cc4)CC3)ccc2s1 [Compound 1-138, N-(1-(pyridin-4-ylmethyl)piperidin-4-yl)-5-(1-(4-(trifluoromethyl)phenyl)piperidin-4-yloxy)benzo [b]thiophene-2-carboxamide] | < 100 |
| CC(C)(C)OC(=O)N1CCC(NC(=O)c2cc3ccc(OC4CCN(c5ccc(C(F)(F)F)cc5)CC4)cc3s2)CC1 [Compound 1-140, tert-butyl 4-(6-(1-(4-(trifluoromethyl)phenyl)piperidin-4-yloxy)benzo[b]thiophene-2-carboxamido) piperidine-1-carboxylate] | 500 to 1000 |
| O=C(NC1CCNCC1)c1cc2ccc(OC3CCN(c4ccc(C(F)(F)F)cc4)CC3)cc2s1 [Compound 1-141, N-(piperidin-4-yl)-6-(1-(4-(trifluoromethyl)phenyl)piperidin-4-yloxy)benzo[b] thiophene-2-carboxamide] | 100 to 500 |
| N#Cc1ccc(CN2CCC(NC(=O)c3cc4ccc(OC5CCN(c6ccc(C(F)(F)F)cc6)CC5)cc4s3)CC2)cc1 [Compound 1-144, N-(1-(4-cyanobenzyl)piperidin-4-yl)-6-(1-(4-(trifluoromethyl)phenyl)piperidin-4-yloxy)benzo [b]thiophene-2-carboxamide] | < 100 |
| N#Cc1cccc(CN2CCC(NC(=O)c3cc4ccc(OC5CCN(c6ccc(C(F)(F)F)cc6)CC5)cc4s3)CC2)c1 [Compound 1-145, N-(1-(3-cyanobenzyl)piperidin-4-yl)-6-(1-(4-(trifluoromethyl)phenyl)piperidin-4-yloxy)benzo [b]thiophene-2-carboxamide] | 100 to 500 |
| N#Cc1ccccc1CN1CCC(NC(=O)c2cc3ccc(OC4CCN(c5ccc(C(F)(F)F)cc5)CC4)cc3s2)CC1 [Compound 1-146, N-(1-(2-cyanobenzyl)piperidin-4-yl)-6-(1-(4-(trifluoromethyl)phenyl)piperidin-4-yloxy)benzo [b]thiophene-2-carboxamide] | 100 to 500 |
| CC(C)(C)OC(=O)N1CCC(NC(=O)c2sc3cc(OC4CCN(c5ccc(C(F)(F)F)cc5)CC4)ccc3c2Cl)CC1 [Compound 1-147, tert-butyl 4-(3-chloro-6-(1-(4-(trifluoromethyl)phenyl)piperidin-4-yloxy)benzo [b]thiophene-2-carboxamido) piperidine-1-carboxylate] | 1000 to 5000 |
| O=C(NC1CCNCC1)c1sc2cc(OC3CCN(c4ccc(C(F)(F)F)cc4)CC3)ccc2c1Cl [Compound 1-148, 3-chloro-N-(piperidin-4-yl)-6-(1-(4-(trifluoromethyl)phenyl)piperidin-4-yloxy)benzo [b]thiophene-2-carboxamide] | > 10000 |
| CC(C)(C)OC(=O)N1CCC(NC(=O)c2cc3cc(OC4CCN(c5ccc(C(F)(F)F)cc5)CC4)ccc3s2)CC1 [Compound 1-149, tert-butyl 4-(5-(1-(4-(trifluoromethyl)phenyl)piperidin-4-yloxy)benzo [b]thiophene-2-carboxamido) piperidine-1-carboxylate] | < 100 |
| O=C(NC1CCNCC1)c1cc2cc(OC3CCN(c4ccc(C(F)(F)F)cc4)CC3)ccc2s1 [Compound 1-150, N-(piperidin-4-yl)-5-(1-(4-(trifluoromethyl)phenyl)piperidin-4-yloxy)benzo [b]thiophene-2-carboxamide] | 1000 to 5000 |
| O=C(NC1CCN(Cc2ccncc2)CC1)c1sc2cc(OC3CCN(c4ccc(C(F)(F)F)cc4)CC3)ccc2c1Cl [Compound 1-151, 3-chloro-N-(1-(pyridin-4-ylmethyl)piperidin-4-yl)-6-(1-(4-(trifluoromethyl)phenyl)piperidin-4-yloxy)benzo[b] thiophene-2-carboxamide] | < 100 |
| O=C(NC1CCN(Cc2cccnc2)CC1)c1sc2cc(OC3CCN(c4ccc(C(F)(F)F)cc4)CC3)ccc2c1Cl [Compound 1-152, 3-chloro-N-(1-(pyridin-3-ylmethyl)piperidin-4-yl)-6-(1-(4-(trifluoromethyl)phenyl)piperidin-4-yloxy)benzo[b] thiophene-2-carboxamide] | < 100 |
| O=C(NC1CCN(Cc2ccccn2)CC1)c1sc2cc(OC3CCN(c4ccc(C(F)(F)F)cc4)CC3)ccc2c1Cl [Compound 1-153, 3-chloro-N-(1-(pyridin-2-ylmethyl)piperidin-4-yl)-6-(1-(4-(trifluoromethyl)phenyl)piperidin-4-yloxy)benzo[b] thiophene-2-carboxamide] | 100 to 500 |
| N#Cc1ccc(CN2CCC(NC(=O)c3sc4cc(OC5CCN(c6ccc(C(F)(F)F)cc6)CC5)ccc4c3Cl)CC2)cc1 [Compound 1-154, 3-chloro-N-(1-(4-cyanobenzyl)piperidin-4-yl)-6-(1-(4-(trifluoromethyl)phenyl)piperidin-4-yloxy)benzo[b] thiophene-2-carboxamide] | < 100 |
| O=C(NC1CCN(C(=O)c2ccncc2)CC1)c1sc2cc(OC3CCN(c4ccc(C(F)(F)F)cc4)CC3)ccc2c1Cl [Compound 1-155, 3-chloro-N-(1-isonicotinoylpiperidin-4-yl)-6-(1-(4-(trifluoromethyl)phenyl)piperidin-4-yloxy)benzo[b] thiophene-2-carboxamide] | < 100 |
| CC(C)(C)OC(=O)N1CCC(NC2CCc3cc(OC4CCN(c5ccc(C(F)(F)F)cc5)CC4)ccc32)CC1 (stereo not drawn) [Compound 1-156, tert-butyl 4-(5-(1-(4-(trifluoromethyl)phenyl)piperidin-4-yloxy)-2,3-dihydro-1H-inden-1-ylamino)piperidine-1-carboxylate] | 100 to 500 |
| FC(F)(F)c1ccc(N2CCC(Oc3ccc4c(c3)CCC4NC3CCNCC3)CC2)cc1 (stereo not drawn) [Compound 1-157, N-(5-(1-(4-(trifluoromethyl)phenyl)piperidin-4-yloxy)-2,3-dihydro-1H-inden-1-yl)piperidin-4-amine] | 1000 to 5000 |
| FC(F)(F)c1ccc(N2CCC(Oc3ccc4c(c3)CCC4NC3CCN(Cc4ccncc4)CC3)CC2)cc1 (stereo not drawn) [Compound 1-158, 1-(pyridin-4-ylmethyl)-N-(5-(1-(4-(trifluoromethyl)phenyl)piperidin-4-yloxy)-2,3-dihydro-1H-inden-1-yl)piperidin-4-amine] | 100 to 500 |
| Fc1ccc(CN2CCC(NC3CCc4cc(OC5CCN(c6ccc(C(F)(F)F)cc6)CC5)ccc43)CC2)cc1 (stereo not drawn) [Compound 1-159, 1-(4-fluorobenzyl)-N-(5-(1-(4-(trifluoromethyl)phenyl)piperidin-4-yloxy)-2,3-dihydro-1H-inden-1-yl)piperidin-4-amine] | 100 to 500 |
| N#Cc1ccc(CN2CCC(NC3CCc4cc(OC5CCN(c6ccc(C(F)(F)F)cc6)CC5)ccc43)CC2)cc1 (stereo not drawn) [Compound 1-160, 4-((4-(5-(1-(4-(trifluoromethyl)phenyl)piperidin-4-yloxy)-2,3-dihydro-1H-inden-1-ylamino)piperidin-1-yl)methyl)benzonitrile] | < 100 |
| N#Cc1ccc(CN2CCC(NC(=O)c3cc4ccc(OC5CCN(Cc6cnn(-c7ccc(C#N)cc7)c6)CC5)cc4o3)CC2)cc1 [Compound 1-161, N-(1-(4-cyanobenzyl)piperidin-4-yl)-6-(1-((1-(4-cyanophenyl)-1H-pyrazol-4-yl)methyl)piperidin-4-yloxy)benzofuran-2-carboxamide] | 500 to 1000 |
| N#Cc1ccc(CN2CCC(NC(=O)c3cc4cc(OC5CCN(Cc6cnn(-c7ccc(C#N)cc7)c6)CC5)ccc4o3)CC2)cc1 [Compound 1-162, N-(1-(4-cyanobenzyl)piperidin-4-yl)-5-(1-((1-(4-cyanophenyl)-1H-pyrazol-4-yl)methyl)piperidin-4-yloxy)benzofuran-2-carboxamide] | < 100 |
| N#Cc1ccc(CN2CCC(NC(=O)c3cc4cc(OC5CCN(C(=O)c6ccc(-n7cccn7)cc6)CC5)ccc4o3)CC2)cc1 [Compound 1-163, 5-(1-(4-(1H-pyrazol-1-yl)benzoyl)piperidin-4-yloxy)-N-(1-(4-cyanobenzyl)piperidin-4-yl)benzofuran-2-carboxamide] | < 100 |
